Experimental data reported in patent US20260297085A1, “1 H-PYRROLO[2,3-B]PYRIDIN-4-YL]-2-OXOPYRROLIDINE-3-CARBONITRILE DERIVATIVES AS TYROSINE KINASE 2 (TYK2) INHIBITORS FOR THE TREATMENT OF INFLAMMATORY DISEASES” (BIOGEN MA INC., priority 2023, published 2026).
Where a name gives a salt, the structure may show the parent alone.

Columns and labels:
[1] = target: JAK1 kinase activity on STAT3 in TF1 cells (Homo sapiens, UniProt P23458); assay: pSTAT3 cell assay (MSD; TF1 cells, 30 ng/mL IL-6 stimulation); format: cell-based; details: 30 ng/mL IL-6, 15 minutes
Procedure: The inhibitory potency of compounds of the disclosure against the JAK1 kinase activity on STAT3 was evaluated using an MSD-platform plate-based assay format. TF1 cells natively expressing STAT3 and JAK1 were serum-starved to reduce background phosphorylation levels, then cells were treated with compounds of the disclosure for 1 hour with a 10-point four-fold dilution series starting at 10 μM. Cells were then stimulated with 30 ng/mL interleukin 6 (IL-6) for 15 minutes. Cells were lysed and pSTAT3 levels were quantitated using an MSD plate-based assay with anti-STAT3 antibodies. The data were normalized and the percent activity versus log concentration of compound was fitted with a 4-parameter logistic model to generate IC50 curves.

[2] = target: JAK2 kinase activity on STAT5 in TF1 cells (Homo sapiens, UniProt O60674); assay: pSTAT5 cell assay (MSD; TF1 cells, 30 ng/mL IL-3 stimulation); format: cell-based; details: 30 ng/mL IL-3, 15 minutes
Procedure: The inhibitory potency of compounds of the disclosure against the JAK2 kinase activity on STAT5 was evaluated using an MSD-platform plate-based assay format. TF1 cells natively expressing STAT5 and JAK2 were serum-starved to reduce background phosphorylation levels, then cells were treated with compounds of disclosure for 1 hour with a 10-point four-fold dilution series starting at 10 μM. Cells were then stimulated with 30 ng/mL IL-3 for 15 minutes. Cells were then lysed and pSTAT5 levels were quantitated using an MSD plate-based assay with anti-STAT5 antibodies. The data were normalized and the percent activity versus log concentration of compound was fitted with a 4-parameter logistic model to generate a curve and an IC50 value.

[3] = target: Tyk2 kinase activity on STAT4 in NK92 cells (Homo sapiens, UniProt P29597); assay: pSTAT4 cell assay (MSD; NK92 cells, 30 ng/mL IL2 stimulation); format: cell-based; details: 30 ng/mL IL2, 15 minutes
Procedure: The inhibitory potency of compounds of the disclosure against the Tyk2 kinase activity on STAT4 was evaluated using an MSD-platform plate-based assay format. NK92 cells natively expressing STAT4 and Tyk2 were serum-starved to reduce background phosphorylation levels, then cells were treated compounds for 1 hr with a 10-point four-fold dilution series starting at 10 μM. Cells were then stimulated with 30 ng/mL IL2 for 15 minutes. Cells were lysed and […] levels were quantitated using an MSD plate-based assay with anti-STAT4 antibodies. The data were normalized and the percent activity versus log concentration of compound were fitted with a 4-parameter logistic model to generate to generate IC50 curves.

[4] = target: T1, human JAK2 kinase domain (JH1) (Homo sapiens, UniProt O60674); assay: JH1 biochemical assay for JAK2 (ADP-Glo kinase assay, recombinant JH1 catalytic domain, JAK3-974 peptide, 15 μM ATP)
T1 construct: recombinantly generated catalytic kinase (also known as JH1) domain of human JAK1, JAK2, JAK3 and TYK2
In short: (§1)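 Kinase 4 nM JAK1 / 0.2 nM JAK2 / 0.3 nM JAK3 / 2 nM TYK2; 50 μM peptide; 100 min. Unused ATP depleted, ADP→ATP, luciferase luminescence. 11-pt 3-fold series from 10 or 1 μM; normalized, 4PL fit → IC50.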

[5] = target: T2, human TYK2 kinase domain (JH1) (Homo sapiens, UniProt P29597); assay: JH1 biochemical assay for TYK2 (ADP-Glo kinase assay, recombinant JH1 catalytic domain, JAK3-974 peptide, 10 μM ATP)
T2 construct: recombinantly generated catalytic kinase (also known as JH1) domain of human JAK1, JAK2, JAK3 and TYK2
T2 sequence (P29597 897-1176 limits assumed): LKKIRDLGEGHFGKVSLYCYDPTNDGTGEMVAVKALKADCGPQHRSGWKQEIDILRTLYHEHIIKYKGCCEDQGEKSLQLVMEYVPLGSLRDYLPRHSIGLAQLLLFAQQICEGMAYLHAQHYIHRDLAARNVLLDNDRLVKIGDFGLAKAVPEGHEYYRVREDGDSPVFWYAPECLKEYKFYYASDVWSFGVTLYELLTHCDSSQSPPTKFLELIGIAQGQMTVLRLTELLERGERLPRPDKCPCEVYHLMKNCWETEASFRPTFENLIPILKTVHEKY
In short: as §1

[6] = target: T3, human JAK1 kinase domain (JH1) (Homo sapiens, UniProt P23458); assay: JH1 biochemical assay for JAK1 (ADP-Glo kinase assay, recombinant JH1 catalytic domain, JAK3-342 peptide, 35 μM ATP)
T3 construct: recombinantly generated catalytic kinase (also known as JH1) domain of human JAK1, JAK2, JAK3 and TYK2
In short: as §1

[7] = target: T4, human JAK3 kinase domain (JH1) (Homo sapiens, UniProt P52333); assay: JH1 biochemical assay for JAK3 (ADP-Glo kinase assay, recombinant JH1 catalytic domain, JAK3-974 peptide, 4 μM ATP)
T4 construct: recombinantly generated catalytic kinase (also known as JH1) domain of human JAK1, JAK2, JAK3 and TYK2
In short: as §1

T3 sequence (P23458 875-1153 limits assumed): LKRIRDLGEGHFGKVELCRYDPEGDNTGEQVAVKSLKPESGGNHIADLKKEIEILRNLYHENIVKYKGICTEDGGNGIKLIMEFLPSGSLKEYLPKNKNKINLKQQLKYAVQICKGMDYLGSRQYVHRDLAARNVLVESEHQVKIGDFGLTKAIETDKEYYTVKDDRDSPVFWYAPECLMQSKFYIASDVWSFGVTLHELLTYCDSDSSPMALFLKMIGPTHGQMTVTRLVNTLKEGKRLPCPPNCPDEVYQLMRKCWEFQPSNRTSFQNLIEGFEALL
Tyk2 kinase activity on STAT4 in NK92 cells, sequence (P29597 whole entry): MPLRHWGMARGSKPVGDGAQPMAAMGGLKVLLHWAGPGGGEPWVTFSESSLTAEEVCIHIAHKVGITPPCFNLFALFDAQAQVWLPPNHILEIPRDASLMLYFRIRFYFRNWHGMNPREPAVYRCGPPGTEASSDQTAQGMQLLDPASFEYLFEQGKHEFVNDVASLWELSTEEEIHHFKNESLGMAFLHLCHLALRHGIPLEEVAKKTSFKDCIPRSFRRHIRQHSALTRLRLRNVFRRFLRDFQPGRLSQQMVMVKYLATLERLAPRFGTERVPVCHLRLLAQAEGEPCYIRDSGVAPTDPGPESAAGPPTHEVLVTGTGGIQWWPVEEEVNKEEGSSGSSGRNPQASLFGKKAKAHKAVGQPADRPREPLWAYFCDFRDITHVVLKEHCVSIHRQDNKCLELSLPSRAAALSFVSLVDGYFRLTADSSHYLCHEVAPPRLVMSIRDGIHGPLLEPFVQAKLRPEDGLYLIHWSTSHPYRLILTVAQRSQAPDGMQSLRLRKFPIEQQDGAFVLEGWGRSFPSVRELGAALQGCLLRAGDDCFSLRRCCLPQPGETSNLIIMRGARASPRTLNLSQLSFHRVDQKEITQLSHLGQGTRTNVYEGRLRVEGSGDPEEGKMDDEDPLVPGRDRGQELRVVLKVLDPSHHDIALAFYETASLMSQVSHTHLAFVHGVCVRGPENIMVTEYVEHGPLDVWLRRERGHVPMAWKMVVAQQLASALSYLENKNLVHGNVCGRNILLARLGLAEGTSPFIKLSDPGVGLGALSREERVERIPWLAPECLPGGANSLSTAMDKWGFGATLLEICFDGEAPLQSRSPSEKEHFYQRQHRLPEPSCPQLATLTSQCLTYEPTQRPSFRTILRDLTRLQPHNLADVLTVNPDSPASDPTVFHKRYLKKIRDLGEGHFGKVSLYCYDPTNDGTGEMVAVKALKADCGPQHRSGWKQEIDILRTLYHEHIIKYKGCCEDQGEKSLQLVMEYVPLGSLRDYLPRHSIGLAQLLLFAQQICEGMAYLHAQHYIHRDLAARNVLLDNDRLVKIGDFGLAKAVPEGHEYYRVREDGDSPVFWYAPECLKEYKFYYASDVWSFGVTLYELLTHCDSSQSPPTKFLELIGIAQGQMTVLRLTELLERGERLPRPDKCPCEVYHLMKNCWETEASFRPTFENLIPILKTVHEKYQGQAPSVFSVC
T4 sequence (P52333 822-1111 limits assumed): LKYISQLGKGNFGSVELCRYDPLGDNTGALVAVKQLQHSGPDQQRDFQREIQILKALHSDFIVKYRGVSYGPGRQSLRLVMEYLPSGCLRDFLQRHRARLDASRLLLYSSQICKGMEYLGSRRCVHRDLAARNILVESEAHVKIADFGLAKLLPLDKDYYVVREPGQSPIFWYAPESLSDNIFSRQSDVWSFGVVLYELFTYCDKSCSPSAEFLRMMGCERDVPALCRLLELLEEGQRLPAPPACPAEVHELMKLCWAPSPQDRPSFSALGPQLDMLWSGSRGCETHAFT
T1 sequence (O60674 849-1124 limits assumed): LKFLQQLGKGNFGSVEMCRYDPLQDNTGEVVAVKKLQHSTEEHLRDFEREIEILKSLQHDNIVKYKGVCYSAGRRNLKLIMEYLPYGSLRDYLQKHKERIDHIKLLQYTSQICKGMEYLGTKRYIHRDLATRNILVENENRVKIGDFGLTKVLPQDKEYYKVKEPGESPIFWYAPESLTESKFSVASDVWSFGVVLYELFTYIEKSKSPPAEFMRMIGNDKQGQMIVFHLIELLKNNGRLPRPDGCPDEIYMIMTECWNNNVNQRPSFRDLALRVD
JAK2 kinase activity on STAT5 in TF1 cells, sequence (O60674 whole entry): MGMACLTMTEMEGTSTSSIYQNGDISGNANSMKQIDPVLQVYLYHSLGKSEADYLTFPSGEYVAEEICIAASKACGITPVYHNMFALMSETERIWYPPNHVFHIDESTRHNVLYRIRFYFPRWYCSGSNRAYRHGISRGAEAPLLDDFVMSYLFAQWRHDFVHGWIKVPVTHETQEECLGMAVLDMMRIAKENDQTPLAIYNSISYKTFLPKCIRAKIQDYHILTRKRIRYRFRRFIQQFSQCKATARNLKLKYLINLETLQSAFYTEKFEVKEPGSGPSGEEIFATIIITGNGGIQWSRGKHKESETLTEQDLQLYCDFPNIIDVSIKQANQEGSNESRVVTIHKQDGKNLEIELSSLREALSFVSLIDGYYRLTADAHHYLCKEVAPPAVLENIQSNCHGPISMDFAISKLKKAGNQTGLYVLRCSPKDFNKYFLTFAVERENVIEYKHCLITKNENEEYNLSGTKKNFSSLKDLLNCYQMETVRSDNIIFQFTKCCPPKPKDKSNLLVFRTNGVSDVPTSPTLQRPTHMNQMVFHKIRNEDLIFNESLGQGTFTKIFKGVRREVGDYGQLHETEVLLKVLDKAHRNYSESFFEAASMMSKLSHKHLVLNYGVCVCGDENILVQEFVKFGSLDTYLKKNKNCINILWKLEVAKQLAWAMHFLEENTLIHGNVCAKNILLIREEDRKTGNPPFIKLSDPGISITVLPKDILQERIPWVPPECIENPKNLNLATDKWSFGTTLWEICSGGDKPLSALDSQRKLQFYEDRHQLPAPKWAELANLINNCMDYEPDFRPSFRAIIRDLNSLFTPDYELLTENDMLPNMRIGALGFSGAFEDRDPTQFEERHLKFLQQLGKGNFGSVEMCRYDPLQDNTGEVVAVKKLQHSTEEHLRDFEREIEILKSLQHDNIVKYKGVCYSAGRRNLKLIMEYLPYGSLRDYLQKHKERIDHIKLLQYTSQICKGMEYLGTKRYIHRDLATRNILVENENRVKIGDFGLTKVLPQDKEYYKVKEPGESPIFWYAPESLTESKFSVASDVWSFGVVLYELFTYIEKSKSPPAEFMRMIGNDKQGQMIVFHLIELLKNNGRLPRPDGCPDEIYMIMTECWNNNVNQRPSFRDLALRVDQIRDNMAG
JAK1 kinase activity on STAT3 in TF1 cells, sequence (P23458 whole entry): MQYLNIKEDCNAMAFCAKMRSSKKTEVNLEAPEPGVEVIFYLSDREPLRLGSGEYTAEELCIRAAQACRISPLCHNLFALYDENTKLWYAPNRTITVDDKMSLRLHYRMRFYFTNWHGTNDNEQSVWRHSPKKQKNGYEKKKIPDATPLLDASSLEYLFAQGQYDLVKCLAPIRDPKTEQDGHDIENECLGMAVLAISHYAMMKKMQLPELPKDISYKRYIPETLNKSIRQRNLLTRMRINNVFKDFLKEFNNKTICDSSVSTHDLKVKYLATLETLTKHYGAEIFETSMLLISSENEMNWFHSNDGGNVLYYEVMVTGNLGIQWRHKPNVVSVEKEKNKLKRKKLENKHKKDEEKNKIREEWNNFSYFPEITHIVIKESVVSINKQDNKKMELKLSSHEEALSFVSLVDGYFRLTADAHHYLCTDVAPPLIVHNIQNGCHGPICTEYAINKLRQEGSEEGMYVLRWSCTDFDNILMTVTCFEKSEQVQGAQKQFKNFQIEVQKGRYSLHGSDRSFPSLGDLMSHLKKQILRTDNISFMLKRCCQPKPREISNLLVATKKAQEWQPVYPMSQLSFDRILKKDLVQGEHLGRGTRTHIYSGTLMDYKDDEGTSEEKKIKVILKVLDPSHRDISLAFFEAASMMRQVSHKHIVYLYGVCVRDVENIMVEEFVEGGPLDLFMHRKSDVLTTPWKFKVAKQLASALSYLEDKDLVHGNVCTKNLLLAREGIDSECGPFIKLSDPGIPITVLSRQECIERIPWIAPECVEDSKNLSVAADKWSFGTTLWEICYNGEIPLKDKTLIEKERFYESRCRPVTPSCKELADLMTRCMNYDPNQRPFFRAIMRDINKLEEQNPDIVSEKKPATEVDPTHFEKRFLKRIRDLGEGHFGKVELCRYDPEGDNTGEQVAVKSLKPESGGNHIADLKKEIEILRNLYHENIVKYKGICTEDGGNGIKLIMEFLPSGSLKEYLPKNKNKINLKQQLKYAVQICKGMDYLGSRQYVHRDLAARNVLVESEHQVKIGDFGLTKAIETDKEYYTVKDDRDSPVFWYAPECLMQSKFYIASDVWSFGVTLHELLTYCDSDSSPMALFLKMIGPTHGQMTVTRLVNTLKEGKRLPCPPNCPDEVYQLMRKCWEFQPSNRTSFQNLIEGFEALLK

Row | SMILES | IC50 [1] | IC50 [2] | IC50 [3] | IC50 ([4]; JH1 kinase domain, ADP-Glo) | IC50 ([5]; JH1 kinase domain, ADP-Glo) | IC50 ([6]; JH1 kinase domain, ADP-Glo) | IC50 ([7]; JH1 kinase domain, ADP-Glo) | IC50 ([4]; JAK2 JH1, ADP-Glo) | IC50 ([5]; TYK2 JH1, ADP-Glo) | IC50 ([6]; JAK1 JH1, ADP-Glo) | IC50 ([7]; JAK3 JH1, ADP-Glo)
1 | C[C@@H]1CN(c2ccnn3cc(-c4ccc(C(=O)N(C)C)cn4)cc23)C(=O)[C@]1(C#N)C1CC1 [Example 124, 6-(4-((3R,4S)-3-cyano-3-cyclopropyl-4-methyl-2-oxopyrrolidin-1-yl)pyrrolo[1,2-b]pyridazin-6-yl)-N,N-dimethylnicotinamide trifluoroacetate] | 5000 to 10000 nM | 5000 to 10000 nM | > 100 nM | 100 to 1000 nM | 5 to 20 nM | 100 to 1000 nM | 100 to 1000 nM |  |  |  | 
2 | C[C@@H]1CN(c2ccnn3cc(-c4cnc5cc(C#N)ccn45)cc23)C(=O)[C@]1(C#N)C1CC1 [Example 103, 3-(4-((3R,4S)-3-cyano-3-cyclopropyl-4-methyl-2-oxopyrrolidin-1-yl)pyrrolo[1,2-b]pyridazin-6-yl)imidazo[1,2-a]pyridine-7-carbonitrile trifluoroacetate] | > 10000 nM | > 10000 nM | > 100 nM | > 10000 nM | 5 to 20 nM | > 10000 nM | > 10000 nM |  |  |  | 
3 | C[C@@H]1CN(c2nc(-c3cnn(C(F)F)c3)cn3nccc23)C(=O)[C@]1(C#N)C1CC1 [Example 185, (3R,4S)-3-cyclopropyl-1-(6-(1-(difluoromethyl)-1H-pyrazol-4-yl)pyrazolo[1,5-a]pyrazin-4-yl)-4-methyl-2-oxopyrrolidine-3-carbonitrile] | 100 to 1000 nM | 100 to 1000 nM | 20 to 50 nM | < 100 nM | < 5 nM | < 100 nM | < 100 nM |  |  |  | 
4 | C[C@@H]1CN(c2nc(-c3cnn(C4CC5(COC5)C4)c3)cn3ncc(F)c23)C(=O)[C@]1(C#N)C1CC1 [Example 298, (3R,4S)-1-(6-(1-(2-oxaspiro[3.3]heptan-6-yl)-1H-pyrazol-4-yl)-3-fluoropyrazolo[1,5-a]pyrazin-4-yl)-3-cyclopropyl-4-methyl-2-oxopyrrolidine-3-carbonitrile] | 100 to 1000 nM | 100 to 1000 nM | 50 to 100 nM |  |  |  |  | < 100 nM | < 5 nM | < 100 nM | < 100 nM
5 | COc1cc(-c2cc3c(N4CC[C@@](C#N)(C5CC5)C4=O)ccnc3[nH]2)ccn1 [Example 3, (S)-3-cyclopropyl-1-(2-(2-methoxypyridin-4-yl)-1H-pyrrolo[2,3-b]pyridin-4-yl)-2-oxopyrrolidine-3-carbonitrile] | 100 to 1000 nM | 1000 to 5000 nM | 20 to 50 nM | < 100 nM | < 5 nM | < 100 nM | < 100 nM |  |  |  | 
6 | C[C@@H]1CN(c2nc(-c3cccnc3)cn3nccc23)C(=O)[C@]1(C#N)C1CC1 [Example 194, (3R,4S)-3-cyclopropyl-4-methyl-2-oxo-1-(6-(pyridin-3-yl)pyrazolo[1,5-a]pyrazin-4-yl)pyrrolidine-3-carbonitrile] | 1000 to 5000 nM | 1000 to 5000 nM | > 100 nM | 100 to 1000 nM | < 5 nM | < 100 nM | < 100 nM |  |  |  | 
7 | C[C@@H]1CN(c2ccnn3cc(-c4cc5ccccn5n4)cc23)C(=O)[C@]1(C#N)C1CC1 [Example 104, (3R,4S)-3-cyclopropyl-4-methyl-2-oxo-1-(6-(pyrazolo[1,5-a]pyridin-2-yl)pyrrolo[1,2-b]pyridazin-4-yl)pyrrolidine-3-carbonitrile trifluoroacetate] | 1000 to 5000 nM | 5000 to 10000 nM | > 100 nM | 100 to 1000 nM | < 5 nM | 100 to 1000 nM | 100 to 1000 nM |  |  |  | 
8 | C[C@@H]1CN(c2nc(-c3cnn4c3COCC4)cn3ncc(F)c23)C(=O)[C@]1(C#N)C1CC1 [Example 192, (3R,4S)-3-cyclopropyl-1-(6-(6,7-dihydro-4H-pyrazolo[5,1-c][1,4]oxazin-3-yl)-3-fluoropyrazolo[1,5-a]pyrazin-4-yl)-4-methyl-2-oxopyrrolidine-3-carbonitrile] | 1000 to 5000 nM | > 10000 nM | > 100 nM | 100 to 1000 nM | 5 to 20 nM | < 100 nM | < 100 nM |  |  |  | 
9 | C[C@@H]1CN(c2nc(-c3ccnc(C(F)(F)F)c3)cn3nccc23)C(=O)[C@]1(C#N)C1CC1 [Example 234, (3R,4S)-3-cyclopropyl-4-methyl-2-oxo-1-(6-(2-(trifluoromethyl)pyridin-4-yl)pyrazolo[1,5-a]pyrazin-4-yl)pyrrolidine-3-carbonitrile trifluoroacetate] | > 10000 nM | > 10000 nM | > 100 nM |  |  |  |  | 100 to 1000 nM | 5 to 20 nM | 100 to 1000 nM | 100 to 1000 nM
10 | COCc1cnn(-c2cc3c(N4C[C@@H](C)[C@@](C#N)(C5CC5)C4=O)ccnn3c2)c1 [Example 337, (3R,4S)-3-cyclopropyl-1-(6-(4-(methoxymethyl)-1H-pyrazol-1-yl)pyrrolo[1,2-b]pyridazin-4-yl)-4-methyl-2-oxopyrrolidine-3-carbonitrile] |  |  | > 100 nM |  |  |  |  | 100 to 1000 nM | 20 to 50 nM | 100 to 1000 nM | 100 to 1000 nM

Second part, the compound after the results:

Row | IC50 [1] | IC50 [2] | IC50 [3] | IC50 ([4]; JH1 kinase domain, ADP-Glo) | IC50 ([5]; JH1 kinase domain, ADP-Glo) | IC50 ([6]; JH1 kinase domain, ADP-Glo) | IC50 ([7]; JH1 kinase domain, ADP-Glo) | IC50 ([4]; JAK2 JH1, ADP-Glo) | IC50 ([5]; TYK2 JH1, ADP-Glo) | IC50 ([6]; JAK1 JH1, ADP-Glo) | IC50 ([7]; JAK3 JH1, ADP-Glo) | SMILES
11 | 1000 to 5000 nM | 1000 to 5000 nM | 50 to 100 nM | 100 to 1000 nM | < 5 nM | 100 to 1000 nM | 100 to 1000 nM |  |  |  |  | C[C@@H]1CN(c2ccnn3cc(-c4ccc(N(C)C)nc4)cc23)C(=O)[C@]1(C#N)C1CC1 [Example 62, (3R,4S)-3-cyclopropyl-1-(6-(6-(dimethylamino)pyridin-3-yl)pyrrolo[1,2-b]pyridazin-4-yl)-4-methyl-2-oxopyrrolidine-3-carbonitrile]
12 | 1000 to 5000 nM | 1000 to 5000 nM | 50 to 100 nM | 100 to 1000 nM | < 5 nM | 100 to 1000 nM | < 100 nM |  |  |  |  | C[C@@H]1CN(c2ccnn3cc(-c4cnn([C@H]5CC5(F)F)c4)cc23)C(=O)[C@]1(C#N)C1CC1 (single isomer, unassigned) [Example 156]
13 | 100 to 1000 nM | 100 to 1000 nM | 20 to 50 nM |  |  |  |  | < 100 nM | < 5 nM | < 100 nM | < 100 nM | C[C@@H]1CN(c2ccnn3cc(-c4cnn(C5CC6(COC6)C5)c4)cc23)C(=O)[C@]1(C#N)C1CC1 [Example 319, (3R,4S)-1-(6-(1-(2-oxaspiro[3.3]heptan-6-yl)-1H-pyrazol-4-yl)pyrrolo[1,2-b]pyridazin-4-yl)-3-cyclopropyl-4-methyl-2-oxopyrrolidine-3-carbonitrile]
14 | > 10000 nM | > 10000 nM | > 100 nM | 100 to 1000 nM | 5 to 20 nM | 100 to 1000 nM | 100 to 1000 nM |  |  |  |  | Cc1c(-c2cc3c(N4C[C@@H](C)[C@@](C#N)(C5CC5)C4=O)ccnn3c2)cnn1C [Example 166, (3R,4S)-3-cyclopropyl-1-(6-(1,5-dimethyl-1H-pyrazol-4-yl)pyrrolo[1,2-b]pyridazin-4-yl)-4-methyl-2-oxopyrrolidine-3-carbonitrile]
15 | 1000 to 5000 nM | 5000 to 10000 nM | 20 to 50 nM | 100 to 1000 nM | < 5 nM | < 100 nM | < 100 nM |  |  |  |  | [2H]C([2H])([2H])n1cc(-c2cc3c(N4C[C@@H](C)[C@@](C#N)(C5CC5)C4=O)ccnn3c2)cn1 [Example 164, (3R,4 S)-3-cyclopropyl-4-methyl-1-(6-(1-(methyl-d3)-1H-pyrazol-4-yl)pyrrolo[1,2-b]pyridazin-4-yl)-2-oxopyrrolidine-3-carbonitrile]
